# Patent publication US20080064048A1, “Methods for Selecting Proteins that are Readily Presented as Antigens on Dendritic Cells” (Medical and Biological Laboratories, Co., Ltd., priority 2004, published 2008)
# Where a SMILES comes first, the peptide text is derived from it. The star is where a group is joined. Cbz = O=C(OCc1ccccc1)*
# T1: TAP1 (mouse, UniProt P21958 1-724)
# T1 construct: Endogenous protein; also called TAP1/2
# T1 sequence (looked up): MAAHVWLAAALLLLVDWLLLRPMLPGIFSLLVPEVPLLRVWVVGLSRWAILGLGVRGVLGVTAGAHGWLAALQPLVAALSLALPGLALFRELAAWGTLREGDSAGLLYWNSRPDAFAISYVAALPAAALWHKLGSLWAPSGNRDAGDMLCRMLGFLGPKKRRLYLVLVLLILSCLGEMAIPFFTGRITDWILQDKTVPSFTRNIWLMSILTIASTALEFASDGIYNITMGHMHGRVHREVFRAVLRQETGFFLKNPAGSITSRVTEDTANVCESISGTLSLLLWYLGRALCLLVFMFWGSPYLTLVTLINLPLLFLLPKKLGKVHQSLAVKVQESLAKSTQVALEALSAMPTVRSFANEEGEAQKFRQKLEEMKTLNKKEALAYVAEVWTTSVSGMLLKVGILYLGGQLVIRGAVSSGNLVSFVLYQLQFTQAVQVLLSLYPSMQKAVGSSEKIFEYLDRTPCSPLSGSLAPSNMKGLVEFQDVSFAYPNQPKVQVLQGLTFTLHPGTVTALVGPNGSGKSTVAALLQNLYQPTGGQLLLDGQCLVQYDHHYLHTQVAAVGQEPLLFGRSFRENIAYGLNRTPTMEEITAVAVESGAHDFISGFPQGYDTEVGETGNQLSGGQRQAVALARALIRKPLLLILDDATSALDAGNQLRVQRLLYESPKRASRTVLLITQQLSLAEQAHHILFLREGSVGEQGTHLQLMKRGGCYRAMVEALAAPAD
# T2: TAP2 (mouse, UniProt P36371 1-702)
# T2 construct: Endogenous protein; also called TAP1/2
# T2 sequence (looked up): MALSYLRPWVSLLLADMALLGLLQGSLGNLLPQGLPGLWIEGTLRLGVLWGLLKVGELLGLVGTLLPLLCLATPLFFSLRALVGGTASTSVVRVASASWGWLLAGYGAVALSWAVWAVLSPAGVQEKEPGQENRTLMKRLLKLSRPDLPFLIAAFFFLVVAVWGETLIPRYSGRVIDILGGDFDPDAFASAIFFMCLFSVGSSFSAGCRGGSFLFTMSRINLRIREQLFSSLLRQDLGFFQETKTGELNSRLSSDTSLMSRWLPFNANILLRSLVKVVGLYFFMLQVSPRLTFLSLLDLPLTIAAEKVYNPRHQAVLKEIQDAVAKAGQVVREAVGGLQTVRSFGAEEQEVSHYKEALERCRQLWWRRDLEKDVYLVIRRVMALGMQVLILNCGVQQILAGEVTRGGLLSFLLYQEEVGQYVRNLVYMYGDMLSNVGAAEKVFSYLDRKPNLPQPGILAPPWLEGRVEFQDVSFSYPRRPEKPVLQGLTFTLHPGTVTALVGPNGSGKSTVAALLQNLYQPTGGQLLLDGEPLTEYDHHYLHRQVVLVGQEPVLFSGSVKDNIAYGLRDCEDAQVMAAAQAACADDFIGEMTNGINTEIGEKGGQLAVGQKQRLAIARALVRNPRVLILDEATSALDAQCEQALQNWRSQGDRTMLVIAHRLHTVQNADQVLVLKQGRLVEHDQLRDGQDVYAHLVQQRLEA
# Legend:
# [1] = system: DC2.4 cells; experiment: Pulse-chase degradation of cell-bound bOVA (SA beads, SDS-PAGE, Western blot); format: cell-based, mouse; settings: for effect of inhibitor on decrease (degradation) of cell-bound bOVA: DC2.4, bOVA 1 h pulse, chase up to 4 h, MG-132 10 μM, lactacystin 2 μM, NH4Cl 50 mM; for effect of ERAD inhibition on degradation of accumulated bOVA: DC2.4, thapsigargin 300 nM, tunicamycin 2 μg
# Description: Triton X-100 was used to lyse membranes. […] DC2.4 cells were pulsed with bOVA and chased. bOVA was recovered using SA beads, then separated by SDS-PAGE followed by Western blotting using SA-HRP Ctl: a control not containing inhibitors. […] Asterisks in the left panel indicate non-specific binding with SA-HRP.
# Next, DC2.4 cells were incubated with bOVA for one hour, and this was then chased for up to four hours. Cell-bound bOVA was recovered from total cell lysates by streptavidin-agarose and separated by SDS-PAGE.
# Depletion of Ca^2+ in the ER is known to inhibit ERAD. Thapsigargin (Tg) is known to decrease the Ca^2+ concentration in the ER lumen by binding to the ER membrane and functioning as an ionophore and to inhibit ERA D. Thus, in the presence of Tg, bOVA degradation by ERAD is predicted to be suppressed. DC2.4 cells were pulsed with bOVA in the presence of MG-132, then washed with PBS or with PBS containing 1 mM EGTA, and then chased for four hours.
# [2] = system: OT-I CD8+ T cells; experiment: Antigen presentation level: IL-2 production by OT-I CD8+ T cells (ELISA); format: cell-based, mouse; settings: for effect of proteasome inhibitor on stimulation by OVA: DC2.4, OVA 250 μg/mL; for effect of proteasome inhibitor on stimulation by OVA / effect of proteasome inhibitor on stimulation by SIINFEKL peptide: lactastatin 10 μM, MG-132 25 μM; for effect of proteasome inhibitor on stimulation by SIINFEKL peptide: DC2.4, SIINFEKL 10 ng/mL
# Text: Whether knock-down of cellular components involved in ERAD decreases the cross-presentation of exogenous OVA antigen was examined using a system for evaluating the level of antigen presentation, which uses naive CD8^+ T cells from OT-I mice and DC2.4 cells. The DC2.4 cells used as a model of dendritic cells are of the H-2 Kb mouse MHC class I haplotype. OT-I (H-2 Kb) mice are transgenic mice expressing a T cell receptor (TCRα and β) that recognizes an antigenic peptide (SIINFEKL) (SEQ ID NO: 15) derived from OVA presented on the H-2 Kb molecules. The CD8^+ cells of OT-I mice are activated when they recognize OVA peptides presented by BMDCs derived from H-2 Kb mice or by DC2.4 cells. When OVA or bOVA is incubated with and affixed onto DC2.4 cells and the cells are further incubated with naive CD8^+ T cells of OT-I mice, the amount of IL-2 produced by OT-I CD8^+ T cells serves as an index of T-cell stimulation as a result of OVA antigen presented by DC2.4 cells.
# Parental or knocked-down DC2.4 cells were pre-incubated in a culture medium supplemented with 50 μg mL^−1 polymyxin B for 30 minutes in the presence or absence of lactacystin or MG-132, and incubated with OVA (250 μg mL^−1) or SIINFEKL (SEQ ID NO: 15) peptides (10 ng mL^−1) for six hours. The cells were washed, fixed with 1% paraformaldehyde, and aliquoted into microtiter plates (5×10^4 per well). 5×10^4 CD8^+ T cells purified from splenocytes of OT-1 mice using magnetic beads were added to each well and after a 24-hour incubation, the IL-2 secretion was measured by ELISA (BD Biosciences) in triplicate. […]
# [3] = biological target: OVA-derived antigenic peptide SIINFEKL presented on H-2 Kb on DC2.4 cells (chicken; mouse) (UniProt P01887); experiment: cell-based or functional assay
# [4] = system: OT-II CD4+ T cells; experiment: MHC class II antigen presentation: IL-2 production by OT-II CD4+ T cells; format: cell-based, mouse
# Description: DC2.4 cells pretreated in the presence of NH4Cl were cultured with OVA, and then the stimulation of OT-I CD8^+ T cells in response to MHC […] presentation (circles) and stimulation of OT-II CD4^+ T cells in response to MHC class II antigen presentation (triangles) was determined by measuring IL-2 production levels. IL-2 production level in the presence of NH4Cl was expressed as a ratio relative to the control (IL-2 production was 700 pg/mL relative to OT-I, and 20 pg/mL relative to OT-II).
# [5] = biological target: T1, TAP1; experiment: co-immunoprecipitation with anti-TAP1 from DC2.4 lysate, SA-HRP blot
# Description: (§1) DC2.4 cells were incubated with bOVA and subjected to co-immunoprecipitation with anti-Sec61α. bOVA was added at 2.5 mg mL⁻¹ to cell lysates before immunoprecipitation (the two left-hand lanes in each panel). After SDS-PAGE, blotting was performed using SA-HRP and anti-Sec61α antibody.
# (§2) 2×10⁷ DC2.4 or BMDC cells were cultured for four hours in a medium containing 10 μM MG-132 in the presence of bOVA at 250 μg mL⁻¹. Cells were lysed in 20 mM HEPES pH7.6 containing 1% digitonin and protease inhibitors to collect biotin-labeled samples. The samples were cleared of impurities in advance using protein G sepharose (Amersham Pharmacia Biotech), and after incubation with antibodies for precipitation (anti-Sec61β, anti Sec61α, anti-VCP, anti-BiP, anti-PDI, anti-calreticulin, anti-TAP1, and anti-TAP2), the immunoprecipitates were collected using protein G. When chicken anti-CHIP antibody was used, immunoprecipitates were collected using a rabbit anti-IgY column (a person, MBL). The precipitated samples were analyzed by SDS-PAGE and Western blotting.
# [6] = biological target: T2, TAP2; experiment: co-immunoprecipitation with anti-TAP2 from DC2.4 lysate, SA-HRP blot
# Description: as §1, §2
# [7] = DC2.4 pretreated with NH4Cl, cultured with OVA
# [8] = control without NH4Cl, DC2.4 cultured with OVA
molecule,measurement,setting,value
"CC(C)C[C@@H](C=O)NC(=O)[C@H](CC(C)C)NC(=O)[C@H](CC(C)C)NC(=O)OCc1ccccc1 [MG-132, reference compound] (Cbz-Leu-Leu-Leu-aldehyde)",effect of inhibitor on decrease (degradation) of cell-bound bOVA,[1],blocked
same,effect of proteasome inhibitor on stimulation by OVA,[2],suppressed
same,effect of proteasome inhibitor on stimulation by SIINFEKL peptide,[2],did not suppress
OT-I T cell receptor (TCRα and β) on CD8+ T cells of OT-I mice,IL-2 production level,[3],700 pg/mL
"Cl.N [NH4Cl, Ammonium chloride, reference compound]",effect of inhibitor on decrease (degradation) of cell-bound bOVA,[1],did not significantly affect
same,effect on presentation of the OVA antigen with MHC class II to OT-II CD4+ cells,[4]; [7],inhibited
same,effect on presentation of the OVA antigen with MHC class to OT-I CD8+ T cells,[2]; [7],did not reduce
C/C=C(/C)C(=O)O[C@H]1C(C)=C2[C@H]([C@@H]1OC(=O)CCCCCCC)[C@@](C)(OC(C)=O)C[C@H](OC(=O)CCC)[C@@]1(O)[C@H]2OC(=O)[C@@]1(C)O [Thapsigargin],effect of ERAD inhibition on degradation of accumulated bOVA,[1],inhibited
"CC(=O)N[C@@H](CSC(=O)[C@]1([C@@H](O)C(C)C)NC(=O)[C@H](C)[C@@H]1O)C(=O)O [lactacystin, reference compound]",effect of inhibitor on decrease (degradation) of cell-bound bOVA,[1],blocked
same,effect of proteasome inhibitor on stimulation by OVA,[2],suppressed
same,effect of proteasome inhibitor on stimulation by SIINFEKL peptide,[2],did not suppress
tunicamycin,effect of ERAD inhibition on degradation of accumulated bOVA,[1],inhibited
"OVA-KDEL: OVA with KDEL (Lys-Asp-Glu-Leu) added to its C-terminus, SEQ ID NO: 14 (protein) MGSIGAASMEFCFDVFKELKVHHANENIFYCPIAIMSALAMVYLGAKDSTRTQINKVVRFDKLPGFGDSIEAQCGTSVNVHSSLRDILNQITKPNDVYSFSLASRLYAEERYPILPEYLQCVKELYRGGLEPINFQTAADQARELINSWVESQTNGIIRNVLQPSSVDSQTAMVLVNAIVFKGLWEKAFKDEDTQAMPFRVTEQESKPVQMMYQIGLFRVASMASEKMKILELPFASGTMSMLVLLPDEVSGLEQLESIINFEKLTEWTSSNVMEERKIKVYLPRMKMEEKYNLTSVLMAMGITDVFSSSANLSGISSAESLKISQAVHAAHAEINEAGREVVGSAEAGVDAASVSEEFRADHPFLFCIKHIATNAVLFFGRCVSPASAEDYEYPSRSNGTKNNTSQASKDEL",antigen presentation level compared with OVA,"[2]; DC2.4, data not shown",stronger
"biotin-labeled chicken ovalbumin (bOVA) (other, UniProt P01012 2-386, looked up, biotin-labeled (sites not given), Exogenous antigen added to mouse dendritic cells) GSIGAASMEFCFDVFKELKVHHANENIFYCPIAIMSALAMVYLGAKDSTRTQINKVVRFDKLPGFGDSIEAQCGTSVNVHSSLRDILNQITKPNDVYSFSLASRLYAEERYPILPEYLQCVKELYRGGLEPINFQTAADQARELINSWVESQTNGIIRNVLQPSSVDSQTAMVLVNAIVFKGLWEKAFKDEDTQAMPFRVTEQESKPVQMMYQIGLFRVASMASEKMKILELPFASGTMSMLVLLPDEVSGLEQLESIINFEKLTEWTSSNVMEERKIKVYLPRMKMEEKYNLTSVLMAMGITDVFSSSANLSGISSAESLKISQAVHAAHAEINEAGREVVGSAEAGVDAASVSEEFRADHPFLFCIKHIATNAVLFFGRCVSP",binding result,[5],no binding
same,binding result,[6],no binding
"Chicken ovalbumin (protein, Chicken ovalbumin used as an antigen model) GSIGAASMEFCFDVFKELKVHHANENIFYCPIAIMSALAMVYLGAKDSTRTQINKVVRFDKLPGFGDSIEAQCGTSVNVHSSLRDILNQITKPNDVYSFSLASRLYAEERYPILPEYLQCVKELYRGGLEPINFQTAADQARELINSWVESQTNGIIRNVLQPSSVDSQTAMVLVNAIVFKGLWEKAFKDEDTQAMPFRVTEQESKPVQMMYQIGLFRVASMASEKMKILELPFASGTMSMLVLLPDEVSGLEQLESIINFEKLTEWTSSNVMEERKIKVYLPRMKMEEKYNLTSVLMAMGITDVFSSSANLSGISSAESLKISQAVHAAHAEINEAGREVVGSAEAGVDAASVSEEFRADHPFLFCIKHIATNAVLFFGRCVSP",IL-2 production by OT-II CD4+ T cells (control),[4]; [8],20 pg/mL
same,antigenicity for stimulation of CD8+ OT-I T cells (IL-2 production),"[2]; DC2.4, dose-response OVA vs bOVA",equally antigenic
same,OVA stimulation of OT-I CD8+ T cells by knocked-down DC2.4 cells,"[2]; Sec61 (S22), VCP (V41) or CHIP (C4) knocked down",reduction in OVA stimulation
same,IL-2 production by OT-I CD8+ T cells,[2]; [8],700 pg/mL
